Experimental data: patent US20230115176A1 (Ra Pharmaceuticals, Inc., priority 2019, published 2023)
In brackets after ≈: the same amount, converted by molar mass.

How the values were obtained:
[1] = target: human C5 complement protein (Homo sapiens, UniProt P01031); test: Surface plasmon resonance (SPR), immobilized human C5, 37° C. (Example 18, Table 24); assay type: binding; conditions: lowest value obtained where a range of concentrations was analyzed
[2] = Kinetic solubility in PBS pH 7.4, HPLC-UV (Example 21, Table 27); assay type: physicochemical; conditions: phosphate buffered saline, aqueous buffer, kinetic from dmso stock, 0.5 M PBS, shaken minimum 24 h at approximately 25° C., HPLC-UV 270 nm
Procedure, shortened: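 10 mM DMSO stock diluted into 0.05 M PBS pH 7.4 (5% DMSO final), in triplicate, shaken ≥24 h at ~25 °C, then filtered by centrifugation. Supernatant concentration by HPLC-UV at 270 nm against external DMSO standards (15.6–500.0 μM).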

Human C5 = target: T1, Human C5 (Homo sapiens, UniProt P01031); test: Red blood cell (RBC) hemolysis assay, luminescent (Example 24, Table 29); assay type: cell-based; conditions: sheep EA cells, […] C5-depleted human serum, 0.5 nM human C5, 1 hour at 37° C., luminescence (Table 29)
T1 construct: purchased Complement Technology
Description: Numbers in parenthesis following the compound number indicate alternate enantiomers (as distinguished by retention time during chromatographical separation).

T1 sequence (P01031 19-1676): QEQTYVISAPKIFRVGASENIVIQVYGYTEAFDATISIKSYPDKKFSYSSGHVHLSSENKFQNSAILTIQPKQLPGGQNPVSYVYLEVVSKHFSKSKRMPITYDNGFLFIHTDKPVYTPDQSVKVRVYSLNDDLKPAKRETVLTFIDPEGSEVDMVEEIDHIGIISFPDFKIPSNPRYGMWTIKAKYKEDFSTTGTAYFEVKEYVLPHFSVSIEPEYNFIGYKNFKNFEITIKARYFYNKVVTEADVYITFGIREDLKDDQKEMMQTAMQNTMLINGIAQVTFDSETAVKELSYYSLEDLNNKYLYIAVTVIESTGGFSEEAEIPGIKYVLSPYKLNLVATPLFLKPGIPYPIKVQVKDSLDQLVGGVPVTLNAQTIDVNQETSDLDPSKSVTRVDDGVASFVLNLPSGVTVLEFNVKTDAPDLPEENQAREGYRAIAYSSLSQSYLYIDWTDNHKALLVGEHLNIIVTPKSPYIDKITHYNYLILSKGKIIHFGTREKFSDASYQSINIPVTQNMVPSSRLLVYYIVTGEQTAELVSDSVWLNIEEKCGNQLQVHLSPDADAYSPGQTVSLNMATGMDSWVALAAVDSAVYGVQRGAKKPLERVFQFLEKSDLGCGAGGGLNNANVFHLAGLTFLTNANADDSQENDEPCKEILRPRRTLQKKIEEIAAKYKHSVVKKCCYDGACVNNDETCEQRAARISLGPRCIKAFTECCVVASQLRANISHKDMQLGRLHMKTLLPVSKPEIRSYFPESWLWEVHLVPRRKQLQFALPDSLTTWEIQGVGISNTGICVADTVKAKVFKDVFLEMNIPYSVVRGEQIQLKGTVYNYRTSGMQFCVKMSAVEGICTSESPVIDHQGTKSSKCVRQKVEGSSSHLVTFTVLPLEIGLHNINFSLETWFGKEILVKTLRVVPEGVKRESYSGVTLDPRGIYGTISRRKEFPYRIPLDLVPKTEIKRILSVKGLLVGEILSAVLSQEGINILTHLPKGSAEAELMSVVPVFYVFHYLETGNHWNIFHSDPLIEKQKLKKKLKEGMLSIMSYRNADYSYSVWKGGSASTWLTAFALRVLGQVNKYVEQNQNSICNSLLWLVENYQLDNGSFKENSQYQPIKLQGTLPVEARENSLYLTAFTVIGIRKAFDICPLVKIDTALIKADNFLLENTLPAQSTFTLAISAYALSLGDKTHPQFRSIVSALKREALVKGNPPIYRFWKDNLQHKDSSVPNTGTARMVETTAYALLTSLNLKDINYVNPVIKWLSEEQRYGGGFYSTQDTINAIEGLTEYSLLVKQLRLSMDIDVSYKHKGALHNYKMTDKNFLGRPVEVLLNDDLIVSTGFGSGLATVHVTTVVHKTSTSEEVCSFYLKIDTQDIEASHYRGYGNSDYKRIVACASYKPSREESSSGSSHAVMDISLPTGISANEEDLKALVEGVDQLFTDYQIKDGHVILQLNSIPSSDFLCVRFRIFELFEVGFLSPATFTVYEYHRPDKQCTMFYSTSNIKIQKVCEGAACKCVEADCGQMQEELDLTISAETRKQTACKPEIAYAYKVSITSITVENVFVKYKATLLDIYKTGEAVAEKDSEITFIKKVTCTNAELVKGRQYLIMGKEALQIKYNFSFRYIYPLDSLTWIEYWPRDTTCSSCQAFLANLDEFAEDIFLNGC
human C5 complement protein, sequence (P01031 19-1676): as above

Row | SMILES | Kd [1] [nM] | solubility kinetic [2] [µM] | IC50 (Human C5) [nM]
1 | COc1ccc(N2CCCN(Cc3cccc4c3c(Cl)cn4CC(=O)N(C)C)C2=O)cc1OCCC[C@H]1C[C@H]1C (racemic) [CU0515] | 0.32 | < 10 | –
2 | COc1ccc(N2CCCN(Cc3ccnc4c3c(Cl)cn4CC(=O)N(C)C)C2=O)cc1OCCC[C@H]1C[C@H]1C (racemic) [CU0516] | 0.15 | 30 (≈ 17 µg/mL) | –
3 | COc1ccc(N2CCCN(Cc3cccc4c3ccn4CC(=O)N(C)C)C2=O)cc1OCCC[C@H]1C[C@@H]1C (racemic) [CU0681] | 2.19 | – | –
4 | COc1ccc(N2CCCN(Cc3ccnc4c3ccn4CC(=O)N(C)C)C2=O)cc1OCCC[C@H]1C[C@H]1C (racemic) [CU0737] | 8.1 | – | –
5 | CCCCCOc1cc(N2CCCN(Cc3ccnc4c3c(Cl)cn4CC(=O)NOC)C2=O)ccc1OC [CU0500] | 1.2 | 10 (≈ 5.44 µg/mL) | –
6 | COc1ccc(N2CCCN(Cc3ccnc4c3c(Cl)cn4CC(=O)N(C)C)C2=O)cc1OCCCC(F)(F)C(F)(F)F [CU0502] | 0.32 | – | –
7 | CCCCCOc1cc(N2CCCN(Cc3ccnc4c3c(Cl)cn4CC(=O)N3CC[C@H](OC)C3)C2=O)ccc1OC [CU0504] | 0.254 | – | –
8 | CCCCCOc1cc(N2CCCN(Cc3ccnc4c3c(Cl)cn4CC(=O)N3CCO[C@@H](CN(C)C)C3)C2=O)ccc1OC [CU0519] | 0.291 | – | –
9 | CCCCCOc1cc(N2CCCN(Cc3ccnc4c3c(Cl)cn4CC(=O)NC3COC3)C2=O)ccc1OC [CU0540] | 0.158 | < 10 | –
10 | CCCCCOc1cc(N2CCCN(Cc3ccnc4c3c(Cl)cn4CC(=O)N3CCCC3)C2=O)ccc1OC [CU0541] | 0.31 | 61 (≈ 34.7 µg/mL) | –
11 | COc1cc(CC(=O)N2CCNC(=O)C2)ccc1CN1CCCN(c2ccc(OC)c(OCCCC3CC3)c2)C1=O [CU0562] | 0.498 | 480 (≈ 271 µg/mL) | –
12 | COc1cc(CNC(=O)c2cocn2)ccc1CN1CCCN(c2ccc(OC)c(OCCCCC3CC3)c2)C1=O [CU0571] | 0.481 | – | –
13 | CCCCCOc1cc(N2CCCN(Cc3ccnc4c3c(Cl)cn4CC(=O)NO)C2=O)ccc1OC [CU0575] | 0.304 | – | –
14 | CCCCCOc1cc(N2CCCN(Cc3ccnc4c3c(Cl)cn4CCO)C2=O)ccc1OC [CU0576] | 0.221 | – | –
15 | COc1cc(CC(=O)N2CCOCC2)ccc1CN1CCCN(c2ccc(OC)c(OCCCC3CCC3)c2)C1=O [CU0589] | 0.302 | 131 (≈ 74.1 µg/mL) | –
16 | COc1cc(CC(=O)N2CCOCC2)ccc1CN1CCCN(c2ccc(OC)c(OCCCCC3CC3)c2)C1=O [CU0598] | 0.747 | < 10 | –
17 | COc1ccc(N2CCCN(Cc3ccnc4c3c(Cl)cn4CC(=O)N(C)C)C2=O)cc1OCCC[C@H]1C[C@@H]1C [CU0610] | 0.207 | 37 (≈ 21 µg/mL) | –
18 | COc1cc(CNC(C)=O)ccc1CN1CCCN(c2ccc(OC)c(OCCCCC3CC3)c2)C1=O [CU0613] | 0.533 | 190 (≈ 96.8 µg/mL) | –
19 | CCCCCOc1cc(N2CCCN(Cc3ccc(CNC4CCN(C)C4=O)cc3OC)C2=O)ccc1OC (stereo not shown) [CU0626] | 1.04 | – | –
20 | CCCCCOc1cc(N2CCCN(Cc3ccc(CC(=O)N4CCCC4C)cc3OC)C2=O)ccc1OC (stereo not shown) [CU0632] | 0.88 | – | –
21 | CCCCCOc1cc(N2CCCN(Cc3cccc4c3ccn4[C@H]3CCN(C)C3=O)C2=O)ccc1OC [CU0644] | 1.11 | 450 (≈ 233 µg/mL) | –
22 | COc1cc(CN)ccc1CN1CCCN(c2ccc(OC)c(OCCCC3CC3)c2)C1=O [CU0657] | 1.32 | – | –

Row | SMILES | Kd [1] [nM] | solubility kinetic [2] [µM] | IC50 (Human C5) [nM]
23 | COc1cc(CCN2CCCC2)ccc1CN1CCCN(c2ccc(OC)c(OCCCC3CC3)c2)C1=O [CU0662] | 1.15 | – | –
24 | COc1cc(CCNC(C)=O)ccc1CN1CCCN(c2ccc(OC)c(OCCCC3CC3)c2)C1=O [CU0668] | 2.53 | – | –
25 | CCCCCOc1cc(N2CCCN(Cc3ccc(CCN4CCCC4(C)C)cc3OC)C2=O)ccc1OC [CU0671] | 0.275 | 397 (≈ 213 µg/mL) | –
26 | CCCCCOc1cc(N2CCCN(Cc3cccc4c3ccn4CC3(O)CCN(CC(=O)N(C)C)CC3)C2=O)ccc1OC [CU0675] | 0.86 | 430 (≈ 267 µg/mL) | –
27 | COc1cc(CN)ccc1CN1CCCN(c2ccc(OC)c(OCCCCC3CC3)c2)C1=O [CU0686] | 0.618 | – | –
28 | CCCCCOc1cc(N2CCCN(Cc3ccc(CCN4[C@H](C)CC[C@@H]4C)cc3OC)C2=O)ccc1OC [CU0690] | 1.69 | – | –
29 | CCCCCOc1cc(N2CCCN(Cc3ccc(CCNC(C)=O)cc3OC)C2=O)ccc1OC [CU0695] | 1.35 | – | –
30 | CCCCCOc1cc(N2CCCN(Cc3ccc(CCNC=O)cc3OC)C2=O)ccc1OC [CU0704] | 2.32 | – | –
31 | COc1cc(CCN2CCCC2)ccc1CN1CCCN(c2ccc(OC)c(OCCCCC3CC3)c2)C1=O [CU0718] | 0.245 | – | –
32 | CCCCCOc1cc(N2CC[C@H](C)N(Cc3cccc4c3ccn4CC(=O)N3CCCC3)C2=O)ccc1OC [SC0001] | – | 66 (≈ 36.1 µg/mL) | 8.4
33 | CCCCCOc1cc(N2CC[C@H](C)N(Cc3cccc4c3ccn4CC(=O)N3CCO[C@H](COC)C3)C2=O)ccc1OC [SC0002] | – | 111 (≈ 67.4 µg/mL) | 8.7
34 | CCCCCOc1cc(N2CC[C@H](C)N(Cc3cccc4c3ccn4CC(=O)N3CCOC(CN(C)C)C3)C2=O)ccc1OC (stereo partly shown) [SC0007] | – | 445 (≈ 276 µg/mL) | 13.6
35 | CCCCCOc1cc(N2CC[C@H](C)N(Cc3cccc4c3ccn4CC(=O)N(C)C)C2=O)ccc1OC [SC0008] | – | 103 (≈ 53.6 µg/mL) | 18.5
36 | CCCCCOc1cc(N2CC[C@H](C)N(Cc3cccc4c3ccn4CC(=O)N3CCO[C@@H](COC)C3)C2=O)ccc1OC [SC0009] | – | 167 (≈ 101 µg/mL) | 18.5
37 | CCCCCOc1cc(N2CC[C@H](C)N(Cc3cccc4c3ccn4CC(=O)N(C)c3cccnc3)C2=O)ccc1OC [SC0011] | – | 43 (≈ 25.1 µg/mL) | 25.2
38 | CCCCCOc1cc(N2CC(C)CN(Cc3ccc(CC(=O)N(C)C)cc3OC)C2=O)ccc1OC (stereo not shown) [SC0017] | – | 398 (≈ 204 µg/mL) | 28.2
39 | C=C1CN(Cc2cc(F)ccc2OC)C(=O)N(c2ccc(OC)c(OCCCCC)c2)C1 [SC0060] | – | < 10 | 22.5
40 | CCCCCOc1cc(N2CC3(COC3)CN(Cc3ccnc4c3ccn4CC(=O)N(C)C)C2=O)ccc1OC [SC0069] | – | – | 129
41 | CCCCCOc1cc(N2CC3(CNC3)CN(Cc3cc(F)ccc3OC)C2=O)ccc1OC [SC0070] | – | – | 398
42 | CCCCCOc1cc(N2CC3(CN(Cc4cc(F)ccc4OC)C2=O)CN(S(=O)(=O)c2ccc(C)cc2)C3)ccc1OC [SC0071] | – | – | 870
43 | CCCCCOc1cc(N2C[C@@H](CO)CN(Cc3cc(F)ccc3OC)C2=O)ccc1OC [SC0072] | – | – | 14.2

Now from value to compound, other results behind:

Row | Kd [1] [nM] | solubility kinetic [2] [µM] | SMILES | IC50 (Human C5) [nM]
44 | 0.038 | < 10 | COc1ccc(N2CCCN(Cc3cccc4c3c(Cl)cn4CC(=O)N(C)C)C2=O)cc1OCCC[C@H]1C[C@@H]1C (racemic) [CU0524] | –
45 | 0.009 | – | CCCCCOc1cc(N2CCCN(Cc3cccc4c3c(I)cn4CC(=O)N(C)C)C2=O)ccc1OC [CU0508] | –
46 | 0.069 | – | CCCCCOc1cc(N2CCCN(Cc3ccnc4c3c(Cl)cn4CC(=O)N3CCOC3)C2=O)ccc1OC [CU0509] | –
47 | 0.093 | – | CCCCCOc1cc(N2CCCN(Cc3ccnc4c3c(Cl)cn4CC(=O)N(C)O)C2=O)ccc1OC [CU0514] | –
48 | 0.041 | – | CCCCCOc1cc(N2CCCN(Cc3ccnc4c3c(Cl)cn4CC(=O)N(C)OC)C2=O)ccc1OC [CU0527] | –
49 | 0.057 | 50 (≈ 29.1 µg/mL) | CCCCCOc1cc(N2CCCN(Cc3ccnc4c3c(Cl)cn4CC(=O)N(C)CCC#N)C2=O)ccc1OC [CU0528] | –
50 | 0.051 | – | COc1ccc(N2CCCN(Cc3ccnc4c3c(Cl)cn4CC(=O)N(C)C)C2=O)cc1OCCCC1CC1 [CU0530] | –
51 | 0.053 | – | CCCCCOc1cc(N2CCCN(Cc3ccnc4c3c(I)cn4CC(=O)N(C)C)C2=O)ccc1OC [CU0535] | –
52 | 0.039 | – | COc1cc(CNC(=O)c2cocn2)ccc1CN1CCCN(c2ccc(OC)c(OCCCC3CC3)c2)C1=O [CU0537] | –
53 | 0.016 | 256 (≈ 150 µg/mL) | CCCCCOc1cc(N2CCCN(Cc3cccc4c3c(Br)cn4CC(=O)N(C)C)C2=O)ccc1OC [CU0543] | –
54 | 0.031 | 455 (≈ 277 µg/mL) | COc1cc(CC(=O)N2CCOC(CN(C)C)C2)ccc1CN1CCCN(c2ccc(OC)c(OCCCC3CC3)c2)C1=O (stereo not shown) [CU0550] | –
55 | 0.14 | – | CCCCCOc1cc(N2CCCN(Cc3ccnc4c3c(Cl)cn4CC(=O)NC3CCOC3)C2=O)ccc1OC (stereo not shown) [CU0561] | –
56 | 0.024 | – | COc1cc(CNC(=O)c2cocn2)ccc1CN1CCCN(c2ccc(OC)c(OCCCC3CCC3)c2)C1=O [CU0565] | –
57 | 0.118 | < 10 | CCCCCOc1cc(N2CCCN(Cc3ccnc4c3c(Cl)cn4CC(=O)NC3(C)COC3)C2=O)ccc1OC [CU0567] | –
58 | 0.074 | – | C#CC(C)NC(=O)Cn1cc(Cl)c2c(CN3CCCN(c4ccc(OC)c(OCCCCC)c4)C3=O)ccnc21 (stereo not shown) [CU0572] | –
59 | 0.115 | – | CCCCCOc1cc(N2CCCN(Cc3ccc(CNC(=O)c4ccco4)cc3OC)C2=O)ccc1OC [CU0597] | –
60 | 0.133 | – | COc1cc(CC(=O)N2CCOCC2)ccc1CN1CCCN(c2ccc(OC)c(OCCCC3CC3(F)F)c2)C1=O (stereo not shown) [CU0601] | –
61 | 0.094 | 30 (≈ 16.2 µg/mL) | COc1cc(CC(=O)N(C)C)ccc1CN1CCCN(c2ccc(OC)c(OCCCCC(C)(C)C)c2)C1=O [CU0638] | –
62 | 0.041 | – | COc1cc(CNC(=O)OC(C)(C)C)ccc1CN1CCCN(c2ccc(OC)c(OCCCC3CC3)c2)C1=O [CU0669] | –
63 | 0.078 | – | COc1cc(CCN2CCCC2)ccc1CN1CCCN(c2ccc(OC)c(OCCCC3CCC3)c2)C1=O [CU0699] | –
64 | 0.018 | – | COc1cc(CN)ccc1CN1CCCN(c2ccc(OC)c(OCCCC3CCC3)c2)C1=O [CU0708] | –
